Experimental data reported in ChEMBL document CHEMBL3217618, “The use of phosphate bioisosteres in medicinal chemistry and chemical biology” (Medchemcomm, 2012).
Numbered stars: 1 amine (or outer) side, 2 acyl side, 3 side chain; on linkers, the order of the positions; unused ones are H or OH. Square brackets hold non-standard residues; d marks the D form. Peptide text beside a SMILES is read from it. X1 = NS(=O)(=O)Cc1ccc(C[C@H](N[*:1])C(=O)[*:2])cc1

Assays:
[1] = Inhibition of Yersinia pestis protein tyrosine phosphatase
[2] = Inhibition of Bacillus anthracis PIsY1
[3] = Inhibition of Streptococcus pneumoniae PIsY1
[4] = Agonist activity at INSP3R in MFF assessed as calcium influx; parameters: species or system Mus musculus
[5] = target: T1, Tyrosine-protein phosphatase non-receptor type 1 (Homo sapiens) (UniProt P18031); assay: Inhibition of PTP1B (unknown origin) at 11 uM
T1 sequence (whole entry): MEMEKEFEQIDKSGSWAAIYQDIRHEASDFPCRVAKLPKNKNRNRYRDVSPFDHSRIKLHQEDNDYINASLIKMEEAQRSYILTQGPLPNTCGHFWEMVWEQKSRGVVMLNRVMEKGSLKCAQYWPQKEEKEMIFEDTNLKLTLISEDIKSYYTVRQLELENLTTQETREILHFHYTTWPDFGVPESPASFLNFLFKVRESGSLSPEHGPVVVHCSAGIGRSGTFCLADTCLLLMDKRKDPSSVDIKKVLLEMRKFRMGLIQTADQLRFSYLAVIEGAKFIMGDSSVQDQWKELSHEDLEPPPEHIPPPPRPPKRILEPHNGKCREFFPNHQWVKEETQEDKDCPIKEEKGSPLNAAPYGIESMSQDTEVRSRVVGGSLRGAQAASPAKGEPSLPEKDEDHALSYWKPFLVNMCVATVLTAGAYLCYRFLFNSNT

[6] = target: Growth factor receptor-bound protein 2 (Homo sapiens, UniProt P62993); assay: Binding affinity to SH2 domain of GRB2 (unknown origin) by surface plasmon resonance assay
Chain of Growth factor receptor-bound protein 2 (P62993 whole entry, the tested form may be a part): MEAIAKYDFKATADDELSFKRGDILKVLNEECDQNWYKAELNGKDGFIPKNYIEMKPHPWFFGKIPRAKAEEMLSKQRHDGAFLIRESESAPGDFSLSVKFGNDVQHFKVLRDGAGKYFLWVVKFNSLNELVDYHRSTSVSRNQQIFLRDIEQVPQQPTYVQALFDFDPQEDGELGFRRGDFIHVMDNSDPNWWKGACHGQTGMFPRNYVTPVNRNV

Work on `CC(=O)N[C@@H](CC(=O)O)C(=O)N[C@@H](C)C(=O)N[C@@H](CC(=O)O)C(=O)N[C@@H](CCC(=O)O)C(=O)N[C@@H](Cc1ccc(CS(N)(=O)=O)cc1)C(=O)N[C@@H](CC(C)C)C(N)=O` (Ac-DADE[X1]L-NH2) yielded an IC50 [1] of 0.37 µM.

In the case of `CCCCCCCCCCCCCCCC(=O)C(F)(F)P(=O)(O)O`, the IC50 [2] is reported as 50 µM and the IC50 [3] is reported as 39 µM.

Work on `COP(=O)(O)O[C@@H]1[C@@H](O)[C@H](OP(=O)(O)O)[C@H](O)[C@H](O)[C@H]1OP(=O)(O)O` yielded an IC50 [4] of 9.7 µM.

In the case of `CCCCCCCCCCCCCCCC(=O)CP(=O)(O)O`, the IC50 [2] is reported as 90 µM.

Work on `CCCCCNC(=O)[C@H](Cc1ccc(OC(C(=O)O)C(=O)O)cc1)NC(=O)CCC(=O)O` yielded an inhibition [5] of 80%.

For `CCCCCCCC/C=C/CCCCCCCC(=O)NS(=O)(=O)NCCC`, the IC50 [2] was 200 µM.

`CCCCCC/C=C/CCCCCCCCCC(=O)NP(=O)(O)O` showed an IC50 [3] of 11 µM.

Work on `Cc1ccc2c(ccn2C[C@@H]2C/C=C\C[C@H](c3ccc(CP(C)(=O)O)cc3)[C@H](CC(=O)O)C(=O)NC3(CCCCC3)C(=O)N[C@@H](CC(N)=O)C(=O)NC2)c1` yielded a Kd [6] of 0.0162 µM.

For `CCCCCCCCCCCCCCCC(=O)NS(=O)(=O)Oc1ccc(OC)cc1`, the IC50 [2] was 35 µM.
